Experiments:
[1] = cited from earlier work
HCT-15 = experiment: Growth inhibition of cell lines treated with 2X-121; type: cell-based; settings: Homo sapiens; cell line HCT-15, origin Colon; read-out: Measured growth inhibition IC50
HEC-265 = experiment: as above; type: cell-based; settings: cell line HEC-265, origin Endometrial; read-out: Measured growth inhibition IC50
HepG2 = experiment: as above; type: cell-based; settings: Homo sapiens; cell line HepG2, origin HCC; read-out: Measured growth inhibition IC50
MDA-MB-453 = experiment: as above; type: cell-based; settings: Homo sapiens; cell line MDA-MB-453, origin Breast; read-out: Measured growth inhibition IC50
DU145 = experiment: as above; type: cell-based; settings: Homo sapiens, DU-145; cell line DU145, origin Prostate; read-out: Measured growth inhibition IC50
KLE = experiment: as above; type: cell-based; settings: Homo sapiens; cell line KLE, origin Endometrial; read-out: Measured growth inhibition IC50
AN3 CA = experiment: as above; type: cell-based; settings: Homo sapiens; cell line AN3 CA, origin Endometrial; read-out: Measured growth inhibition IC50
HCC1143 = experiment: as above; type: cell-based; settings: Homo sapiens; cell line HCC1143, origin Breast; read-out: Measured growth inhibition IC50
SF-295 = experiment: as above; type: cell-based; settings: Homo sapiens; cell line SF-295, origin GBM; read-out: Measured growth inhibition IC50
NCI-H524 = experiment: as above; type: cell-based; settings: Homo sapiens; cell line NCI-H524, origin SCLC; read-out: Measured growth inhibition IC50
Mino = experiment: as above; type: cell-based; settings: Homo sapiens; cell line Mino, origin MCL; read-out: Measured growth inhibition IC50
M14 = experiment: as above; type: cell-based; settings: Homo sapiens; cell line M14, origin Melanoma; read-out: Measured growth inhibition IC50
HEC-108 = experiment: as above; type: cell-based; settings: cell line HEC-108, origin Endometrial; read-out: Measured growth inhibition IC50
MFE-280 = experiment: as above; type: cell-based; settings: Homo sapiens; cell line MFE-280, origin Endometrial; read-out: Measured growth inhibition IC50
HCC70 = experiment: as above; type: cell-based; settings: Homo sapiens; cell line HCC70, origin Breast; read-out: Measured growth inhibition IC50
NCI-H929 = experiment: as above; type: cell-based; settings: Homo sapiens; cell line NCI-H929, origin Myeloma; read-out: Measured growth inhibition IC50
NCI-H82 = experiment: as above; type: cell-based; settings: Homo sapiens; cell line NCI-H82, origin SCLC; read-out: Measured growth inhibition IC50
NCI-H146 = experiment: as above; type: cell-based; settings: Homo sapiens; cell line NCI-H146, origin SCLC; read-out: Measured growth inhibition IC50
RL = experiment: as above; type: cell-based; settings: Homo sapiens; cell line RL, origin NHL B cell lymphoma; read-out: Measured growth inhibition IC50
HT-1080 = experiment: as above; type: cell-based; settings: Homo sapiens; cell line HT-1080, origin Fibrosarcoma; read-out: Measured growth inhibition IC50
Description: (§1) The NCI60 panel of cell lines can be used to determine sensitivity to 2X-121, but it is also possible to use other cell line panels.
(§2) Baseline DNA chip measurements of 61 of the cancer cell lines in Table 1 (excluding M14 HEC-1 ECC-1 SNG-II HEC-88nu SR IM-9 Namalwa MC/CAR U266 JVM-13 NCEB-1 ARH-77) were performed using Affymetrix HG-U133Plus2 arrays and logit normalized. For each array, the logit transformation was performed followed by a Z-transformation to mean zero and SD 1, and correlated to growth inhibition (−log(GI50)). The expression level of each of the genes of Tables 2 and 3 in each cell line was correlated to the growth of those cell lines (log(GI50)) in the presence of 2X-121. The Pearson correlation coefficient was then determined to identify genes positively and negatively correlated to sensitivity to 2X-121. Tables 2 and 3 show the top positively correlated genes (the biomarkers of sensitivity) and negatively correlated genes (the biomarkers of resistance). In particular, genes with a Pearson correlation greater than 0.25 or below −0.25 can be classified as biomarkers of sensitivity or resistance, respectively.

NCI-H446 = experiment: as above; type: cell-based; settings: Homo sapiens; cell line NCI-H446, origin SCLC; read-out: Measured growth inhibition IC50
Description: as §1, §2

HT = experiment: as above; type: cell-based; settings: Homo sapiens; cell line HT, origin DLBCL (GC); read-out: Measured growth inhibition IC50
Description: as §1, §2

C3A = experiment: as above; type: cell-based; settings: Homo sapiens; cell line C3A, origin HCC; read-out: Measured growth inhibition IC50
Description: as §1, §2

JVM-2 = experiment: as above; type: cell-based; settings: Homo sapiens; cell line JVM-2, origin MCL; read-out: Measured growth inhibition IC50
Description: as §1, §2

ARH-77 = experiment: as above; type: cell-based; settings: Homo sapiens; cell line ARH-77, origin Myeloma; read-out: Measured growth inhibition IC50
NCI-H1694 = experiment: as above; type: cell-based; settings: Homo sapiens; cell line NCI-H1694, origin SCLC; read-out: Measured growth inhibition IC50
HEC-1B = experiment: as above; type: cell-based; settings: Homo sapiens; cell line HEC-1B, origin Endometrial; read-out: Measured growth inhibition IC50
MCF-7 = experiment: as above; type: cell-based; settings: Homo sapiens, MCF7; cell line MCF-7, origin Breast; read-out: Measured growth inhibition IC50

O=c1[nH]nc2c3c(cccc13)N=C(CN1Cc3ccccc3C1)N2 [2X-121, 8-(isoindolin-2-ylmethyl)-2,9-dihydro-3H-pyridazino[3,4,5-de]quinazolin-3-one]
oral bioavailability [1]: orally bioavailable | IC50 (HCT-15): 2.2 µM | IC50 (HEC-265): 2.4 µM | IC50 (HepG2): 3.8 µM | IC50 (MDA-MB-453): 6.2 µM | IC50 (DU145): 1.8 µM | IC50 (KLE): 2.59 µM | IC50 (AN3 CA): 1.49 µM | IC50 (HCC1143): 3.7 µM | IC50 (SF-295): 2.6 µM | IC50 (NCI-H524): 0.69 µM | IC50 (Mino): 3.4 µM | IC50 (M14): 6.7 µM | IC50 (HEC-108): 5.97 µM | IC50 (MFE-280): 0.77 µM | IC50 (HCC70): 9.3 µM | IC50 (NCI-H929): 5.2 µM | IC50 (NCI-H82): 0.47 µM | IC50 (NCI-H146): 0.93 µM | IC50 (RL): 2.5 µM | IC50 (HT-1080): 0.83 µM | IC50 (NCI-H446): 0.61 µM | IC50 (HT): 0.66 µM | IC50 (C3A): 2.54 µM | IC50 (JVM-2): 14 µM | IC50 (ARH-77): 3.2 µM | IC50 (NCI-H1694): 2.47 µM | IC50 (HEC-1B): 7.27 µM | IC50 (MCF-7): 1.9 µM
